Test results as given in patent US20150307520A1, “NOVEL HETEROARYL AND HETEROCYCLE COMPOUNDS, COMPOSITIONS AND METHODS THEREOF” (HUTCHISON MEDIPHARMA LIMITED, priority 2012, published 2015).

How the values were obtained:
Assay type in all cases: biochemical
[1] = target: p110β/p85α (Homo sapiens, UniProt P42338); experiment: Transcreener KINASE Assay, kinase inhibition of p110β/p85α; details: for PI3Kβ IH % @ 1 uM: 1 uM test compound; for IC50: read-out: PI3Kβ IC50
Method in brief: (§1)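 Recombinant PI3K/p85α heterodimers were incubated with compound (2% DMSO final) for 80 min at room temperature in 50 mM HEPES, 100 mM NaCl, 1 mM EGTA, 0.03% CHAPS, 3 mM MgCl2, 1 mM DTT, with substrate added as a 30 uM PIP2/10 uM ATP mix. ADP was detected by competitive fluorescence polarization immunoassay.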

[2] = target: p110δ/p85α (Homo sapiens, UniProt O00329); experiment: Transcreener KINASE Assay, kinase inhibition of p110δ/p85α; details: for PI3Kδ IH % @ 1 uM: 1 uM test compound; for IC50: read-out: PI3Kδ IC50
Chain of p110δ/p85α (O00329 whole entry): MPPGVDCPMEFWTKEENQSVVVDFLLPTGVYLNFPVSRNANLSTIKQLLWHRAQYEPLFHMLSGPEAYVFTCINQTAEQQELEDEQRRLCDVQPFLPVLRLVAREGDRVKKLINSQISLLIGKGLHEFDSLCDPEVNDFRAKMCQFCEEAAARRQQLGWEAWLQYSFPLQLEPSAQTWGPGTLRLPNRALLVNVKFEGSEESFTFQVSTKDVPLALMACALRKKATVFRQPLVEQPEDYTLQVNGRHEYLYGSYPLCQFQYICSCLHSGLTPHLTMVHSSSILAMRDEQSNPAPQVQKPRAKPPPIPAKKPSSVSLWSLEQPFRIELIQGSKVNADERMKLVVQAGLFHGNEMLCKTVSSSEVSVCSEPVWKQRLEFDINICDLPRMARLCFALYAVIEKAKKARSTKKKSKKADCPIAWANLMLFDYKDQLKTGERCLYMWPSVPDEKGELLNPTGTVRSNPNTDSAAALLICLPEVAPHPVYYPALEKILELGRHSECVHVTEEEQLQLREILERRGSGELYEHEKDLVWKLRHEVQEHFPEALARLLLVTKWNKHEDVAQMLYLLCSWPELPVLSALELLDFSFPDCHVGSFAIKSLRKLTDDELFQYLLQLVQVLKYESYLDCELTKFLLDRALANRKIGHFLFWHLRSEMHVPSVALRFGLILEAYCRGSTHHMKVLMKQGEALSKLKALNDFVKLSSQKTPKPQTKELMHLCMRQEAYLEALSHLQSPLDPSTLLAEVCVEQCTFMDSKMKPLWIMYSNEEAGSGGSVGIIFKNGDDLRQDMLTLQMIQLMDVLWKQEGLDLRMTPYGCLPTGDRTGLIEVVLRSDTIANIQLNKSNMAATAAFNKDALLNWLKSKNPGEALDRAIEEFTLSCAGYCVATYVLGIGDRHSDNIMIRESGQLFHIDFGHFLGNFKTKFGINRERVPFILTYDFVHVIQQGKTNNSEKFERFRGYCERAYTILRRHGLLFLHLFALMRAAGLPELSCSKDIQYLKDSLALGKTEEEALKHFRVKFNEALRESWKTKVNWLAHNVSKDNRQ
Chain of p110δ/p85α (P27986 whole entry partner): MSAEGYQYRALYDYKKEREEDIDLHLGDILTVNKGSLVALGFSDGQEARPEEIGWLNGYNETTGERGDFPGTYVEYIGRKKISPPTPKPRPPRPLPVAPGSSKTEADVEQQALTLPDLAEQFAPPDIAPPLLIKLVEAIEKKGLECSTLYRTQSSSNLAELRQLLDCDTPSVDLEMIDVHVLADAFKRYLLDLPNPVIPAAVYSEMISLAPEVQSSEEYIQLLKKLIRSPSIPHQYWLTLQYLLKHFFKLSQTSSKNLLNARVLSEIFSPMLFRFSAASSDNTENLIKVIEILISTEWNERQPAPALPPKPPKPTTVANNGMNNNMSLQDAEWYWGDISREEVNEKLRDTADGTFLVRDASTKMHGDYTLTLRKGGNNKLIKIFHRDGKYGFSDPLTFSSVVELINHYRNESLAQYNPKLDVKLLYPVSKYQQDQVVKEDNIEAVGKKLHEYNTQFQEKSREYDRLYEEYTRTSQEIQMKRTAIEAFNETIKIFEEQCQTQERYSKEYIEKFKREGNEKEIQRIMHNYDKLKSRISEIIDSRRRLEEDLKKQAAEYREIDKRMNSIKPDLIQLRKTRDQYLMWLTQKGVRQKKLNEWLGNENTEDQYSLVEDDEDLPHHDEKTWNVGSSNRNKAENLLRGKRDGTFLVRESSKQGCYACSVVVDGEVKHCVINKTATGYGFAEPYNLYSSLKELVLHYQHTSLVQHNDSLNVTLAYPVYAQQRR
Method in brief: as §1

[3] = target: p110γ (Homo sapiens, UniProt P48736); experiment: Transcreener KINASE Assay, kinase inhibition of p110γ; details: for PI3Kγ IH % @ 1 uM: 1 uM test compound; for IC50: read-out: PI3Kγ IC50
Chain of p110γ (P48736 whole entry, canonical isoform): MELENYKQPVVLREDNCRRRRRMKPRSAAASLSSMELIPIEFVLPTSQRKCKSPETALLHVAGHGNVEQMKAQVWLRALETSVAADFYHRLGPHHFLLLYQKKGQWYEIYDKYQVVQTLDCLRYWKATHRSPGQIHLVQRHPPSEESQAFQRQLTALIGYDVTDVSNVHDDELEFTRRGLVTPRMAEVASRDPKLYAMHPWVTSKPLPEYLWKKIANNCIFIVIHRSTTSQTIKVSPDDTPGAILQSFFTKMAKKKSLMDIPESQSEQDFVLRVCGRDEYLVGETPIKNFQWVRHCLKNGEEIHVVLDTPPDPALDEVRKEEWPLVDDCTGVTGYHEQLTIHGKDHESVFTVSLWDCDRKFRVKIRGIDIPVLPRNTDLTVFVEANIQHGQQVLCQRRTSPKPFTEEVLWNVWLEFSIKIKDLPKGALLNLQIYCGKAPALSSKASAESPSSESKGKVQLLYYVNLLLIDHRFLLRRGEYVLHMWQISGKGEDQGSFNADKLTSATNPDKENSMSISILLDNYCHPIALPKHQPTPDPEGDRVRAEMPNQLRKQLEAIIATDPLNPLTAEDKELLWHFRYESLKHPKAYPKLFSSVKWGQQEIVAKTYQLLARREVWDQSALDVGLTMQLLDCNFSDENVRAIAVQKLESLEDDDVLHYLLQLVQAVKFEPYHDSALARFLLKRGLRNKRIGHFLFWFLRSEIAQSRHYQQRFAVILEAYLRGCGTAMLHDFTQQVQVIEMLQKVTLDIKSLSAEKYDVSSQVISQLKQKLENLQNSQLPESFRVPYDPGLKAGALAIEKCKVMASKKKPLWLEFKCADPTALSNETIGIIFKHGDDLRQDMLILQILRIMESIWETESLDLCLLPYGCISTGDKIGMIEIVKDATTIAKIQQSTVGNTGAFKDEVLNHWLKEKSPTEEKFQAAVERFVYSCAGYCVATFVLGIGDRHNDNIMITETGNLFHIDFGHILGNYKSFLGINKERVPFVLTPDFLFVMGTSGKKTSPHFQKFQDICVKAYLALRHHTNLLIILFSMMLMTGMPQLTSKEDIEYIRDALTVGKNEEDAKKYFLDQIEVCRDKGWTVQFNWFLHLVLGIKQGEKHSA
Method in brief: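 ADP-detecting fluorescence polarization immunoassay run as two-step endpoint: kinase reaction for 80 min, detection for 60 min, both at room temperature. Enzymes are recombinant p110 isoforms with p85α, except p110γ. IC50s derived from fitted inhibition curves.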

Chain of p110β/p85α (P42338 whole entry): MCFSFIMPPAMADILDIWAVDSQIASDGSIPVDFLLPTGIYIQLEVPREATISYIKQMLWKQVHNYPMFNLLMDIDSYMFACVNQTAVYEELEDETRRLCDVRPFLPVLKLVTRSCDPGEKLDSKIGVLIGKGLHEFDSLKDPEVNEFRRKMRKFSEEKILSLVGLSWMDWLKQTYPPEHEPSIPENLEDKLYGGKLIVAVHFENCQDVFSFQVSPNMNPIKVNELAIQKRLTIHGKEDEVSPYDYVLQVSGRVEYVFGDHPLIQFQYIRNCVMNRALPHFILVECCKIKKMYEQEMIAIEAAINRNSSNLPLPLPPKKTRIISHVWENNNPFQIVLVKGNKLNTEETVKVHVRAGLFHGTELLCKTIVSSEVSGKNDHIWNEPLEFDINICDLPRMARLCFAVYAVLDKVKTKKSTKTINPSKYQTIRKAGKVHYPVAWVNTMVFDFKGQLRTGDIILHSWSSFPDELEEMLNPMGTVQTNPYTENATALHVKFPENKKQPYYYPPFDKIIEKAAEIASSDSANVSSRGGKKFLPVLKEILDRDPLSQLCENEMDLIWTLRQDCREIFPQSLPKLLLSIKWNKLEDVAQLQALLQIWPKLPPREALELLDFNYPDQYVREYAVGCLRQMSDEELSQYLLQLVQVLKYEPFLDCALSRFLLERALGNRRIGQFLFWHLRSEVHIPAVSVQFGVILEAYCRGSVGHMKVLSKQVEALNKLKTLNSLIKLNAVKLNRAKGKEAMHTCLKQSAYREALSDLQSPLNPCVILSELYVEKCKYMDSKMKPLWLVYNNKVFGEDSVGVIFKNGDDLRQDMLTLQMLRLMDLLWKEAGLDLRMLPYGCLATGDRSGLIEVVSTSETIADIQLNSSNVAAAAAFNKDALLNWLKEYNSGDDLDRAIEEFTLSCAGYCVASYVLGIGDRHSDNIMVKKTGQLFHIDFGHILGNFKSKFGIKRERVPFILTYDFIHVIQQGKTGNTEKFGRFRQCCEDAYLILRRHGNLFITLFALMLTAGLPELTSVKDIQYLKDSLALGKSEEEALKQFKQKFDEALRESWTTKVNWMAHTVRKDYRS
Chain of p110β/p85α (P27986 2-724 partner): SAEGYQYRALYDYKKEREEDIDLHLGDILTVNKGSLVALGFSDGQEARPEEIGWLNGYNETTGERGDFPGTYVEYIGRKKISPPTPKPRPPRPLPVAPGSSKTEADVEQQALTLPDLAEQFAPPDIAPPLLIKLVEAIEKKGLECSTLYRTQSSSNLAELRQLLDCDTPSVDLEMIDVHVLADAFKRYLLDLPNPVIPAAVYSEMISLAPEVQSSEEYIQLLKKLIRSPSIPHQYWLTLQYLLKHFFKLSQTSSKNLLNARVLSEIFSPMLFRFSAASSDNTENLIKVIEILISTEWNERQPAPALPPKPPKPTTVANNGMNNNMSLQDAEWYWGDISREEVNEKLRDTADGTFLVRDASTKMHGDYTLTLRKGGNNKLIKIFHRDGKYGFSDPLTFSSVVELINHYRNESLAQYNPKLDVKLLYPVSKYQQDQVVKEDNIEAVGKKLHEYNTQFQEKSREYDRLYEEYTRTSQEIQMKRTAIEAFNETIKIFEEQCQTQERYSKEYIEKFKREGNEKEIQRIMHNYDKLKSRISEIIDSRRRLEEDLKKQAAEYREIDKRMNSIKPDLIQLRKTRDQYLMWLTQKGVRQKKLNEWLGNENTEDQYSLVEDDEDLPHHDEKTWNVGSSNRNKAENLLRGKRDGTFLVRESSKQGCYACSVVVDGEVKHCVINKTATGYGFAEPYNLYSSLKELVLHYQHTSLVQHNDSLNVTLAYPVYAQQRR

CC(Nc1ncnc2[nH]cc(C#N)c12)c1cn2ccc(Cl)c2c(=O)n1-c1cccc(F)c1 (stereo not shown) [Compound 76]
PI3Kβ IH % @ 1 uM [1]: 82.0%
IC50 [1]: 104 nM
PI3Kδ IH % @ 1 uM [2]: 98.8%
PI3Kγ IH % @ 1 uM [3]: 93.9%

CC(Nc1ncnc2[nH]cnc12)c1cn2ccc(Cl)c2c(=O)n1-c1ccc(F)cc1 (stereo not shown) [Compound 78]
PI3Kβ IH % @ 1 uM [1]: 92.4%
PI3Kδ IH % @ 1 uM [2]: 98.2%
PI3Kγ IH % @ 1 uM [3]: 91.2%

CC(Nc1ncnc(N)c1C#N)c1cn2ccc(Cl)c2c(=O)n1-c1ccc(F)cc1 (stereo not shown) [Compound 79]
PI3Kβ IH % @ 1 uM [1]: 96.3%
PI3Kδ IH % @ 1 uM [2]: 99.0%
PI3Kγ IH % @ 1 uM [3]: 91.6%

CC(Nc1ncnc2[nH]cnc12)c1cn2ccc(Cl)c2c(=O)n1-c1cc(F)cc(F)c1 (stereo not shown) [Compound 80]
PI3Kβ IH % @ 1 uM [1]: 58.9%
PI3Kδ IH % @ 1 uM [2]: >100%
PI3Kγ IH % @ 1 uM [3]: 83.5%

CC(Nc1ncnc(N)c1C#N)c1cn2ccc(Cl)c2c(=O)n1-c1cc(F)cc(F)c1 (stereo not shown) [Compound 81]
PI3Kβ IH % @ 1 uM [1]: 79.0%
IC50 [1]: 217 nM
PI3Kδ IH % @ 1 uM [2]: >100%
PI3Kγ IH % @ 1 uM [3]: 87.9%

CC(Nc1ncnc2[nH]cc(C#N)c12)c1cn2cccc2c(=O)n1-c1ccccc1 (stereo not shown) [Compound 82]
PI3Kβ IH % @ 1 uM [1]: 56.4%
PI3Kδ IH % @ 1 uM [2]: 98.7%
PI3Kγ IH % @ 1 uM [3]: 78.6%
IC50 [3]: 194 nM

CC(Nc1ncnc2[nH]cnc12)c1cn2cccc2c(=O)n1-c1ccccc1 (stereo not shown) [Compound 83]
PI3Kβ IH % @ 1 uM [1]: 42.7%
PI3Kδ IH % @ 1 uM [2]: 97.3%
PI3Kγ IH % @ 1 uM [3]: 78.6%
IC50 [3]: 309 nM

CC(Nc1ncnc2[nH]cc(C#N)c12)c1cn2ccc(Cl)c2c(=O)n1-c1ccccc1 (stereo not shown) [Compound 88]
PI3Kβ IH % @ 1 uM [1]: 94.7%
IC50 [1]: 58 nM
PI3Kδ IH % @ 1 uM [2]: 93.2%
PI3Kγ IH % @ 1 uM [3]: 98.0%
IC50 [3]: 14 nM

CC(Nc1ncnc(N)c1C#N)c1cn2ccc(Cl)c2c(=O)n1-c1ccccc1 (stereo not shown) [Compound 89]
PI3Kβ IH % @ 1 uM [1]: 96.1%
IC50 [1]: 17 nM
PI3Kδ IH % @ 1 uM [2]: >100%
PI3Kγ IH % @ 1 uM [3]: 94.8%

Cc1ccn2cc(C(C)Nc3ncnc(N)c3C#N)n(-c3ccccc3)c(=O)c12 (stereo not shown) [Compound 90, 4-amino-6-(1-(8-methyl-1-oxo-2-phenyl-1,2-dihydropyrrolo[1,2-a]pyrazin-3-yl)ethylamino)pyrimidine-5-carbonitrile]
PI3Kβ IH % @ 1 uM [1]: 93.1%
IC50 [1]: 24 nM
PI3Kδ IH % @ 1 uM [2]: >100%
PI3Kγ IH % @ 1 uM [3]: 95.7%
IC50 [3]: 34 nM

CC(Nc1ncnc2[nH]cnc12)c1cn2ccc(-c3cnn(C)c3)c2c(=O)n1-c1ccccc1 (stereo not shown) [Compound 93, 3-(1-(9H-purin-6-ylamino)ethyl)-8-(1-methyl-1H-pyrazol-4-yl)-2-phenylpyrrolo[1,2-a]pyrazin-1(2H)-one]
PI3Kβ IH % @ 1 uM [1]: 5.4%
PI3Kδ IH % @ 1 uM [2]: 77.6%
IC50 [2]: 244 nM
PI3Kγ IH % @ 1 uM [3]: 53.7%

NC(=O)c1c[nH]c2ncnc(N3CCC[C@H]3c3nn4ccc(Cl)c4c(=O)n3-c3ccccc3)c12 [Compound 95]
PI3Kβ IH % @ 1 uM [1]: 82.0%
IC50 [1]: 36 nM
PI3Kδ IH % @ 1 uM [2]: 97.6%
IC50 [2]: 1 nM
PI3Kγ IH % @ 1 uM [3]: >100%
IC50 [3]: 7 nM

CNC(=O)c1c[nH]c2ncnc(N3CCC[C@H]3c3nn4ccc(Cl)c4c(=O)n3-c3ccccc3)c12 [Compound 96]
PI3Kβ IH % @ 1 uM [1]: 73.4%
IC50 [1]: 169 nM
PI3Kδ IH % @ 1 uM [2]: 97.3%
IC50 [2]: 24 nM
PI3Kγ IH % @ 1 uM [3]: 94.3%
IC50 [3]: 71 nM

CN(C)C(=O)c1c[nH]c2ncnc(N3CCC[C@H]3c3nn4ccc(Cl)c4c(=O)n3-c3ccccc3)c12 [Compound 97]
PI3Kβ IH % @ 1 uM [1]: 45.1%
PI3Kδ IH % @ 1 uM [2]: 55.1%
PI3Kγ IH % @ 1 uM [3]: 84.6%
IC50 [3]: 144 nM

COc1ncc(-c2c[nH]c3ncnc(N4CC[C@H]4c4nn5ccc(Cl)c5c(=O)n4-c4ccccc4)c23)cn1 [Compound 100]
PI3Kβ IH % @ 1 uM [1]: 89.8%
IC50 [1]: 6 nM
PI3Kδ IH % @ 1 uM [2]: >100%
IC50 [2]: 1 nM
PI3Kγ IH % @ 1 uM [3]: >100%
IC50 [3]: 5 nM

COc1ccc(-c2c[nH]c3ncnc(N4CC[C@H]4c4nn5ccc(Cl)c5c(=O)n4-c4ccccc4)c23)cn1 [Compound 102]
PI3Kβ IH % @ 1 uM [1]: 92.3%
IC50 [1]: 61 nM
PI3Kδ IH % @ 1 uM [2]: >100%
IC50 [2]: 1 nM
PI3Kγ IH % @ 1 uM [3]: >100%
IC50 [3]: 14 nM

N#Cc1ncc(-c2c[nH]c3ncnc(N4CC[C@H]4c4nn5ccc(Cl)c5c(=O)n4-c4ccccc4)c23)cn1 [Compound 103]
PI3Kβ IH % @ 1 uM [1]: >100%
IC50 [1]: 46 nM
PI3Kδ IH % @ 1 uM [2]: 99.7%
IC50 [2]: 1 nM
PI3Kγ IH % @ 1 uM [3]: 98.2%
IC50 [3]: 19 nM

Nc1ncc(-c2c[nH]c3ncnc(N4CC[C@H]4c4nn5ccc(Cl)c5c(=O)n4-c4ccccc4)c23)cn1 [Compound 104]
PI3Kβ IH % @ 1 uM [1]: >100%
IC50 [1]: 17 nM
PI3Kδ IH % @ 1 uM [2]: >100%
PI3Kγ IH % @ 1 uM [3]: >100%
IC50 [3]: 3 nM

C#Cc1ccn2nc([C@@H]3CCN3c3ncnc4[nH]cc(C#N)c34)n(-c3ccccc3)c(=O)c12 [Compound 105, (S)-4-(2-(5-ethynyl-4-oxo-3-phenyl-3,4-dihydropyrrolo[2,1-f][1,2,4]triazin-2-yl)azetidin-1-yl)-7H-pyrrolo[2,3-d]pyrimidine-5-carbonitrile]
PI3Kβ IH % @ 1 uM [1]: 16.0%
PI3Kδ IH % @ 1 uM [2]: 90.0%
IC50 [2]: 15 nM
PI3Kγ IH % @ 1 uM [3]: 90.4%
IC50 [3]: 80 nM

CC(C)Cn1c([C@@H]2CCCN2c2ncnc3[nH]cc(C#N)c23)nn2c(F)ccc2c1=O [Compound 107, (S)-4-(2-(7-fluoro-3-isobutyl-4-oxo-3,4-dihydropyrrolo[2,1-f][1,2,4]triazin-2-yl)pyrrolidin-1-yl)-7H-pyrrolo[2,3-d]pyrimidine-5-carbonitrile]
PI3Kβ IH % @ 1 uM [1]: 34.5%
PI3Kδ IH % @ 1 uM [2]: 98.6%
IC50 [2]: 5 nM
PI3Kγ IH % @ 1 uM [3]: 71.8%
IC50 [3]: 153 nM

COc1ccc(-c2c(N)ncnc2N2CC[C@H]2c2nn3ccc(Cl)c3c(=O)n2-c2ccccc2)cn1 [Compound 108, (S)-2-(1-(6-amino-5-(6-methoxypyridin-3-yl)pyrimidin-4-yl)azetidin-2-yl)-5-chloro-3-phenylpyrrolo[2,1-f][1,2,4]triazin-4(3H)-one]
PI3Kβ IH % @ 1 uM [1]: 26.9%
PI3Kδ IH % @ 1 uM [2]: 75.9%
PI3Kγ IH % @ 1 uM [3]: 90.0%

COc1ccc(-c2n[nH]c3ncnc(N4CCC[C@H]4c4nn5ccc(Cl)c5c(=O)n4-c4ccccc4)c23)cn1 [Compound 109]
PI3Kβ IH % @ 1 uM [1]: 61.0%
PI3Kδ IH % @ 1 uM [2]: 99.8%
IC50 [2]: 4 nM
PI3Kγ IH % @ 1 uM [3]: 98.3%
IC50 [3]: 192 nM

N#Cc1n[nH]c2ncnc(N3CCC[C@H]3c3nn4ccc(Cl)c4c(=O)n3-c3ccccc3)c12 [Compound 111, (S)-4-(2-(5-chloro-4-oxo-3-phenyl-3,4-dihydropyrrolo[2,1-f][1,2,4]triazin-2-yl)pyrrolidin-1-yl)-1H-pyrazolo[3,4-d]pyrimidine-3-carbonitrile]
PI3Kβ IH % @ 1 uM [1]: 39.0%
PI3Kδ IH % @ 1 uM [2]: 93.9%
IC50 [2]: 45 nM
PI3Kγ IH % @ 1 uM [3]: 67.2%

O=c1c2c(Cl)ccn2nc([C@@H]2CCN2c2nc(N3CCOCC3)nc3[nH]cnc23)n1-c1ccccc1 [Compound 114, (S)-5-chloro-2-(1-(2-morpholino-9H-purin-6-yl)azetidin-2-yl)-3-phenylpyrrolo[2,1-f][1,2,4]triazin-4(3H)-one]
PI3Kβ IH % @ 1 uM [1]: 86.4%
IC50 [1]: 159 nM
PI3Kδ IH % @ 1 uM [2]: 93.7%
IC50 [2]: 27 nM
PI3Kγ IH % @ 1 uM [3]: 4.3%

CC(Nc1ncnc2[nH]cnc12)c1cc2ncc(Cl)n2c(=O)n1-c1ccccc1 (stereo not shown) [Compound 115, 7-(1-(9H-purin-6-ylamino)ethyl)-3-chloro-6-phenylimidazo[1,2-c]pyrimidin-5(6H)-one]
PI3Kβ IH % @ 1 uM [1]: 80.2%
IC50 [1]: 143 nM
PI3Kδ IH % @ 1 uM [2]: >100%
IC50 [2]: 2 nM
PI3Kγ IH % @ 1 uM [3]: 91.7%
IC50 [3]: 3 nM
